Measurements reported in ChEMBL document CHEMBL4014295, “Discovery and structure-activity relationship studies of N-substituted indole derivatives as novel Mcl-1 inhibitors” (Bioorg Med Chem Lett, 2017).

Columns and labels:
[1] = target: Induced myeloid leukemia cell differentiation protein Mcl-1 (Homo sapiens, UniProt Q07820); test: Inhibition of 6-carboxyfluorescein succinimidyl ester fluorescence tagged-Bid BH3 peptide (79 to 99 residues) binding to Mcl-1 (unknown origin) after 30 mins by fluorescence polarization assay
[2] = target: Apoptosis regulator Bcl-2 (Homo sapiens, UniProt P10415); test: Inhibition of 6-carboxyfluorescein succinimidyl ester fluorescence tagged-Bid BH3 peptide (79 to 99 residues) binding to Bcl-2 (unknown origin) after 30 mins by fluorescence polarization assay
Apoptosis regulator Bcl-2, sequence (P10415 whole entry, the tested form may be a part): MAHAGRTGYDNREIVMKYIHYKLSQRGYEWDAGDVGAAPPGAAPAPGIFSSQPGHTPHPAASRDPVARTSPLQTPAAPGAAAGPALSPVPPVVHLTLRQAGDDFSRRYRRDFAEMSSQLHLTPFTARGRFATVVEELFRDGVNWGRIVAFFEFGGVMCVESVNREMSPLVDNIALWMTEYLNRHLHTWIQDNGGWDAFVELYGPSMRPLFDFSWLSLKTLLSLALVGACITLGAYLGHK

Induced myeloid leukemia cell differentiation protein Mcl-1, sequence (Q07820 whole entry, the tested form may be a part): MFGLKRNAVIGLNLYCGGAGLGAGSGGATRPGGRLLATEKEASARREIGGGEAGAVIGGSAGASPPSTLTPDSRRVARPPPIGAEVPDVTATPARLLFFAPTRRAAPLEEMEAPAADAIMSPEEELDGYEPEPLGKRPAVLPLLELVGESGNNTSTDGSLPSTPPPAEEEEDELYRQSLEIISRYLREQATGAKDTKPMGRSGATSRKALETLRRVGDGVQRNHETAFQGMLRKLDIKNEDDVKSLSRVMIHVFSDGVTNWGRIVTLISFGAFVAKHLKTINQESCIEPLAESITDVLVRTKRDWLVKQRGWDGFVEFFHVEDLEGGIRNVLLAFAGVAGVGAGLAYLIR

| Structure (SMILES) | Ki [1] [nM] | Ki [2] [nM] |
| --- | --- | --- |
| Cc1cc(OCCCn2ccc3ccccc32)cc(C)c1Cl | > 30000 |  |
| CC(C)(C)c1ccc(SCCCn2ccc3ccc(OCC(=O)O)cc32)cc1 | 2380 |  |
| CCOC(=O)COc1ccc2ccn(CCCOc3cc(C)c(Cl)c(C)c3)c2c1 | 3370 |  |
| Cc1cc(OCCCn2ccc3c(OCc4ccccc4C(=O)O)cccc32)cc(C)c1Cl | 140 | 230 |
| CC(C)(C)Oc1ccc(OCCCn2ccc3ccc(OCC(=O)O)cc32)cc1 | 1870 |  |
| Cc1cc(OCCCn2c(C(=O)N(C)C)cc3ccc(OCc4ccccc4C(=O)O)cc32)cc(C)c1Cl | 570 | 730 |
| Cc1cc(C)cc(OCCCn2ccc3ccc(OCC(=O)O)cc32)c1 | 12500 |  |
| O=C(O)COc1ccc2ccn(CCCOc3ccccc3)c2c1 | > 30000 |  |
| CCOC(=O)c1ccc2ccn(CCCOc3cc(C)c(Cl)c(C)c3)c2c1 | > 30000 |  |
| CC(C)(C)c1ccc(OCCCn2ccc3cc(OCc4cccc(C(=O)O)c4)ccc32)cc1 | 250 | 470 |
| Cc1cc(OCCCn2c(C(=O)N3CCCCC3)cc3ccc(OCc4ccccc4C(=O)O)cc32)cc(C)c1Cl | 200 | 270 |
| Cc1cc(OCCn2ccc3ccc(OCC(=O)O)cc32)cc(C)c1Cl | 11600 |  |
| Cc1cc(OCCCn2ccc3ccc(OCc4ccc(C(=O)O)cc4)cc32)cc(C)c1Cl | 1190 | 1240 |
| NC(=O)c1cc2ccc(OCC(=O)O)cc2n1CCCOc1cccc2ccccc12 | 10300 |  |
| O=C(O)COc1ccc2ccn(CCCOc3ccc(Oc4ccccc4)cc3)c2c1 | 3240 |  |
| Cc1cc(OCCCn2ccc3ccc(OCC(=O)O)cc32)ccc1Cl | 9890 |  |
| Cc1ccc2ccn(CCCOc3cc(C)c(Cl)c(C)c3)c2c1 | > 30000 |  |
| CC(C)(C)c1ccc(OCCCn2ccc3cc(OCc4ccccc4C(=O)O)ccc32)cc1 | 310 | 170 |
| Cc1cc(OCCCn2ccc3c(OCc4cccc(C(=O)O)c4)cccc32)cc(C)c1Cl | 150 | 140 |
| Cc1cc(OCCCn2ccc3ccc(OCCCC(=O)O)cc32)cc(C)c1Cl | 2680 |  |
| Cc1cc(OCCCn2ccc3c(OCC(=O)O)cccc32)cc(C)c1Cl | 2000 |  |

| Structure (SMILES) | Ki [1] [nM] | Ki [2] [nM] |
| --- | --- | --- |
| CC(C)(C)Oc1ccc(OCCCn2c(C(N)=O)cc3ccc(OCC(=O)O)cc32)cc1 | 5380 |  |
| COc1ccc(OCCCn2ccc3ccc(OCC(=O)O)cc32)cc1 | 4420 |  |
| Cc1cc(OCCCn2ccc3ccc(OCc4ccccc4C(=O)O)cc32)cc(C)c1Cl | 800 | 1050 |
| Cc1cc(OCCCn2ccc3cc(OCc4ccc(C(=O)O)cc4)ccc32)cc(C)c1Cl | 1630 | 1410 |
| O=C(O)COc1ccc2ccn(CCCOc3ccc(Cl)cc3)c2c1 | 12900 |  |
| Cc1cc(OCCCn2ccc3ccc(OCCO)cc32)cc(C)c1Cl | 2100 |  |
| Cc1cc(OCCCn2ccc3ccc(OCc4cccc(C(=O)O)c4)cc32)cc(C)c1Cl | 740 | 1190 |
| Cc1cccc(OCCCn2ccc3ccc(OCC(=O)O)cc32)c1 | > 30000 |  |
| CNC(=O)c1cc2ccc(OCc3ccccc3C(=O)O)cc2n1CCCOc1cc(C)c(Cl)c(C)c1 | 890 | 810 |
| NC(=O)c1cc2ccc(OCC(=O)O)cc2n1CCCOc1ccc(Oc2ccccc2)cc1 | 4130 |  |
| Cc1cc(OCCCn2ccc3cc(OCc4cccc(C(=O)O)c4)ccc32)cc(C)c1Cl | 200 | 410 |
| Cc1cc(OCCCn2ccc3ccc(OCC(=O)O)cc32)cc(C)c1Cl | 1500 |  |
| CC(C)(C)c1ccc(OCCCn2c(C(=O)N3CCCCC3)cc3ccc(OCc4ccccc4C(=O)O)cc32)cc1 | 360 | 150 |
| Cc1cc(OCCCn2ccc3ccc(C(=O)O)cc32)cc(C)c1Cl | 3000 |  |
| O=C(O)COc1ccc2ccn(CCCOc3cccc4ccccc34)c2c1 | 2570 |  |
| CC(C)(C)c1ccc(OCCn2ccc3ccc(OCC(=O)O)cc32)cc1 | 8190 |  |
| Cc1cc(OCCCn2c(C(N)=O)cc3ccc(OCc4ccccc4C(=O)O)cc32)cc(C)c1Cl | 950 | 850 |
| Cc1cc(OCCCn2ccc3cc(OCC(=O)O)ccc32)cc(C)c1Cl | 1490 |  |
| COc1ccc(OCCCn2c(C(N)=O)cc3ccc(OCC(=O)O)cc32)cc1 | 7780 |  |
| Cc1cc(OCCCn2ccc3cc(OCc4ccccc4C(=O)O)ccc32)cc(C)c1Cl | 110 | 760 |
| Cc1cc2c(C(C)C)c(O)c(O)c(C=O)c2c(O)c1-c1c(C)cc2c(C(C)C)c(O)c(O)c(C=O)c2c1O [GOSSYPOL] | 200 |  |
